Experimental data from ChEMBL document CHEMBL3797106, “Potent and Selective Agonists of Sphingosine 1-Phosphate 1 (S1P1): Discovery and SAR of a Novel Isoxazole Based Series” (J Med Chem, 2016).
The source made the active and inactive calls. No cut-off for these calls is given here.

Tests used:
[1] = species: Homo sapiens; assay: Selectivity ratio of EC50 for human S1P3 receptor to EC50 for human S1P1 receptor
[2] = system: Plasma; assay: Ratio drug level in Lewis rat plasma at 1 mg/kg, po at 4 hrs to drug level in Lewis rat plasma at 1 mg/kg, po at 24 hrs; assay type: ADME, organism-based; details: in vivo
[3] = Plasma concentration in Lewis rat at 1 mg/kg, po measured at 4 hrs; assay type: ADME, organism-based
[4] = Plasma concentration in Lewis rat at 1 mg/kg, po measured at 24 hrs; assay type: ADME, organism-based
[5] = biological target: Sphingosine 1-phosphate receptor 1 (Homo sapiens, UniProt P21453); assay: Agonist activity at human S1P1 receptor expressed in CHO cell membranes after 45 mins by [35S]-GTPgammaS binding assay; assay type: functional
[6] = system: Rattus norvegicus; assay: Reduction of blood lymphocyte level in Lewis rat at 1 mg/kg, po measured at 4 hrs by hematology analyzer relative to vehicle-treated control; assay type: functional; set-up: scale not given: the % may be the effect or the level left
[7] = biological target: Sphingosine 1-phosphate receptor 3 (Homo sapiens, UniProt Q99500); assay: Agonist activity at human S1P3 receptor expressed in EDG3-Ga15-bla HEK293T cell membranes after 45 mins by [35S]-GTPgammaS binding assay; assay type: functional, HEK-293T
[8] = system: Rattus norvegicus; assay: Reduction of blood lymphocyte level in Lewis rat at 1 mg/kg, po measured at 24 hrs by hematology analyzer relative to vehicle-treated control; assay type: functional; set-up: scale not given: the % may be the effect or the level left
[9] = system: Mus musculus; assay: Reduction in clinical score in C57BL/6 mouse experimental autoimmune encephalomyelitis model of multiple sclerosis at 1 mg/kg, po qd for 24 days started from day of immunization measured 3 times per week of compound dosing; assay type: functional, organism-based

Chain of Sphingosine 1-phosphate receptor 1 (P21453 whole entry): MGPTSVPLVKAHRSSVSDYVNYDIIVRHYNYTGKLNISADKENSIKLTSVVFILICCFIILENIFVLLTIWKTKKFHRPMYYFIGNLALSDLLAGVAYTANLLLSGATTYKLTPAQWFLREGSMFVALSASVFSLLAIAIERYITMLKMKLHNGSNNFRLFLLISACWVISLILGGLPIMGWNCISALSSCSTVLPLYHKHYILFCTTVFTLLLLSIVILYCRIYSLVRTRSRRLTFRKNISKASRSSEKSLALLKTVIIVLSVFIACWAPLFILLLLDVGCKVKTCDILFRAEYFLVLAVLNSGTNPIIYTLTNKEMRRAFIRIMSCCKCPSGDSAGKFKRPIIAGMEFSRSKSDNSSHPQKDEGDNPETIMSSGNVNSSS
Chain of Sphingosine 1-phosphate receptor 3 (Q99500 whole entry): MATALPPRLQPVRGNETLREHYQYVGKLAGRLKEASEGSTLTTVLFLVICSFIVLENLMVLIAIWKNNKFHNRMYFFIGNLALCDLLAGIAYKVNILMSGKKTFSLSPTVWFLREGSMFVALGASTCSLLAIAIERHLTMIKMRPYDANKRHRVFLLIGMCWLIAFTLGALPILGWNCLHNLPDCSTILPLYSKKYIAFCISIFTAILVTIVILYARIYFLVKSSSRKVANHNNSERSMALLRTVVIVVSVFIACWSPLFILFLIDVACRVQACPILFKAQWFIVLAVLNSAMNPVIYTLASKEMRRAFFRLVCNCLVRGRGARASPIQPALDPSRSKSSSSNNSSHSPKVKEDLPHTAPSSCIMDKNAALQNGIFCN

| SMILES | Ratio EC50 [1] | Ratio [2] | concentration at 4 h [3] [nM] | concentration at 24 h [4] [nM] | EC50 [5] [nM] | Activity [6] [%] | EC50 [7] [nM] | Activity [8] [%] | Activity [9] |
| --- | --- | --- | --- | --- | --- | --- | --- | --- | --- |
| CC(C)Cc1c(-c2nc(-c3ccc(CN4CC(C(=O)O)C4)cc3)no2)noc1-c1ccccc1 | 1300 | 6 | 190 | 30 | 0.56 | 80 | 730 | 82 | – |
| CC(C)(C)c1c(-c2nc(-c3ccc(CN4CC(C(=O)O)C4)cc3)no2)noc1-c1ccccc1 | 500 | 9 | 520 | 55 | 5.3 | 73 | 2600 | 52 | – |
| O=C(O)C1CN(Cc2ccc(-c3noc(-c4cc(-c5ccccc5)no4)n3)cc2)C1 | – | – | – | – | 25 | – | – | – | – |
| CCCc1c(-c2ccccc2)noc1-c1nc(-c2ccc(CN3CC(C(=O)O)C3)cc2)no1 | 2300 | 15 | 170 | 11 | 0.44 | 85 | 1000 | 82 | – |
| CCCCc1c(-c2nc(-c3ccc(CN4CC(C(=O)O)C4)cc3)no2)noc1-c1ccccc1 | – | 16 | 81 | 5 | – | 82 | – | 60 | – |
| O=C(O)C1CN(Cc2ccc(-c3noc(-c4cc(-c5ccccc5)on4)n3)cc2)C1 | 150 | – | 140 | – | 44 | 22 | 6300 | 0 | – |
| CCCCCCCCc1ccc(CCC(N)(CO)CO)cc1 | – | – | – | – | – | – | – | – | Active |
| O=C(O)C1CN(Cc2ccc(-c3noc(-c4noc(-c5ccccc5)c4-c4ccccc4)n3)cc2)C1 | 130 | – | – | – | 0.99 | – | 130 | – | – |
| O=C(O)C1CN(Cc2ccc(-c3noc(-c4noc(-c5ccccc5)c4C4CC4)n3)cc2)C1 | 540 | – | – | – | 3.2 | – | 1800 | – | – |
| CCCc1c(-c2nc(-c3ccc(CN4CC(C(=O)O)C4)cc3)no2)noc1-c1ccccc1 | 2900 | 31 | 250 | 7.9 | 0.44 | 85 | 1300 | 60 | – |
| CC(F)(F)c1c(-c2nc(-c3ccc(CN4CC(C(=O)O)C4)cc3)no2)noc1-c1ccccc1 | 3500 | 14 | 1400 | 100 | 0.54 | 81 | 1900 | 82 | – |
| CCCc1c(-c2nc(-c3ccc(CN4CC(C(=O)O)C4)cc3)no2)noc1CC(C)C | 2900 | 33 | 1300 | 41 | 0.3 | 86 | 850 | 78 | – |
| Cc1c(-c2ccccc2)noc1-c1nc(-c2ccc(CN3CC(C(=O)O)C3)cc2)no1 | 5500 | – | – | – | 1.7 | – | 9200 | – | – |
| CCc1c(-c2nc(-c3ccc(CN4CC(C(=O)O)C4)cc3)no2)noc1-c1ccccc1 | 7500 | 11 | 320 | 29 | 1.6 | 76 | 12000 | 52 | – |
| Cc1c(-c2nc(-c3ccc(CN4CC(C(=O)O)C4)cc3)no2)noc1-c1ccccc1 | > 6300 | 41 | 260 | 6.4 | 5 | 68 | > 31 | 0 | – |
| CC(C)Cc1onc(-c2nc(-c3ccc(CN4CC(C(=O)O)C4)cc3)no2)c1C(F)(F)F | 16000 | 6 | 1600 | 280 | 0.39 | 88 | 6200 | 83 | – |
| CC(C)c1c(-c2nc(-c3ccc(CN4CC(C(=O)O)C4)cc3)no2)noc1-c1ccccc1 | 4000 | – | – | – | 1.3 | – | 5100 | – | – |
| O=C(O)C1CN(Cc2ccc(-c3noc(-c4noc(-c5ccccc5)c4C(F)(F)F)n3)cc2)C1 | 4100 | 6 | 1100 | 180 | 0.98 | 84 | 4100 | 85 | – |
